From BindingDB's records for doi:10.7270/Q2NS0SBF (Burnham Center For Chemical Genomics, 2010)

Target: Mu-type opioid receptor (Homo sapiens, UniProt P35372)
Assay: MOR agonists by imaging, SAR follow-up, image-based (AID 2352)

Chain of Mu-type opioid receptor (P35372 whole entry): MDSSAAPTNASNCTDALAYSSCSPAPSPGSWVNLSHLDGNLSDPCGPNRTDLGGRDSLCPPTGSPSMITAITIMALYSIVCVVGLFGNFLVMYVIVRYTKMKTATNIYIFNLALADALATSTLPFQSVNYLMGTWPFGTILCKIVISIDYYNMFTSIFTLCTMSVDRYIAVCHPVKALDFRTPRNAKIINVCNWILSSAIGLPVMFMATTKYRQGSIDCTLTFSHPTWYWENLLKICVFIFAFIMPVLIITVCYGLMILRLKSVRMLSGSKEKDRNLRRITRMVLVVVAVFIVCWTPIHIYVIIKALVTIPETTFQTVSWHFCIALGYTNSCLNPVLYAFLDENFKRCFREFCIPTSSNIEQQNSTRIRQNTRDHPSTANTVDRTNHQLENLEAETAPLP

SMILES	EC50
CCC(N=Nc1ccnc2cc(Cl)ccc12)c1ccc(O)cc1 (configuration not stated) [4-[1-[2-(7-chloroquinolin-4-yl)hydrazinyl]propylidene]cyclohexa-2,5-dien-1-one]	25.3 µM
Oc1ccc(CN=Nc2ccnc3cc(Cl)ccc23)cc1O [(4Z)-4-[[2-(7-chloroquinolin-4-yl)hydrazinyl]methylidene]-2-hydroxycyclohexa-2,5-dien-1-one]	> 32 µM
